Test results published in patent US8852240B2, “Methods and compositions for fostering and preserving bone growth” (Kieran Murphy, LLC, priority 2004, dated 2014).
“Also recorded” adds a separate entry of the source.

Legend:
[1] = system: marrow cavity of rat femur; test: Calcein labeling of mid-shaft sections of rat femur after bone marrow ablation (BMX); format: in vivo; conditions: for protection of bone formed in the marrow cavity (calcein fluorescent signal): BMX + PTH 21 days, then anti-resorptive agent for the next 63 days (days 22-84), FIG. 7A
Method: FIG. 1A is a section of the mid-shaft of a rat femur following, respectively, 21 and 84 days of treatment. The groups include: (a) control—no bone marrow ablation (“BMX”) or anabolic agent, (b) BMX—bone marrow ablation alone; and (c) BMX+PTH−bone marrow ablation plus treatment for either 21 or 84 days with PTH 1-34 NH2. In addition, the rats were injected with calcein, a fluorescent dye, on 9, 8, 2 and 1 day prior to sacrificing the animals. Calcein becomes incorporated into bone and serves as a measure of bone growth and mineralization;
FIG. 6A illustrates the degree of persistent bone growth achieved after 84 days with the administration of a biocompatible material, in this instance Cementek (Cementek LV, Non-stoichiometric hydroxyapatite prepared from the reaction between the acid and base calcium phosphates in the presence of an aqueous solution. Teknimid, 65500 VIV en Biggore, France) or Pepgen-15 (a high purity anorganic bovine graft material, radiopaque, peptide-enhanced to mimic autogeneous bone. Dentsply Friadent CeraMed Lakewood, Colo.). All samples were taken from femurs which had BMX performed on them. The groups included: BMX followed by 84 days anabolic agent or PBS (buffer) presented in the first row or BMX followed by insertion of a slurry of biocompatible matrix (Cementek or Pepgen-15) with our without concomitant PTH treatment for 84 days;
FIGS. 7A and 7B illustrate the effect attributable to administration of the anti-resorption agent, Alendronate, in preserving bony tissue formed according to the method of the invention. The following treatment modalities are included: (a) BMX+PTH 1-34 NH2 for 21 days+PBS (buffer) during days 22-84; (b) BMX+PTH 1-34 NH2 for 21 days+calcitonin during days 22-84; (c) BMX+PTH 1-34 NH2 for 21 days+Alendronate during days 22-84; and (d) BMX+PTH 1-34 NH2 during days 1-84.

[2] = system: femoral shaft marrow cavity; test: Micro-CT analysis of the femoral shaft marrow cavity after bone marrow ablation (BMX); format: in vivo, rat; conditions: for protection of bone formed in the marrow cavity (Micro-CT): BMX + PTH 21 days, then anti-resorptive drug for an additional 63 days, FIG. 7B
Excerpt: FIG. 1B depicts the results from the same groups of animals using the imaging technique known as Micro-CT. This technique provides a high resolution analysis of the femoral shaft marrow cavity from the Control, BMX, and the BMX+PTH 1-34 NH2 of rats treated with PBS (buffer) or PTH for 21 or 84 days, respectively;
FIG. 6B depicts the results obtained from the same groups of animals reported in FIG. 6A using the Micro-CT imaging technique. This imaging technique provides a high resolution analysis of the femoral shaft marrow cavity from the BMX+PBS or PBX+PTH treatments, compared with femurs that had biocompatible materials (Cementek or Pepgen-15) injected into the bone marrow cavity following the step (e.g., ablation) resulting in the inducement of increased osteoblast activity; and
FIG. 7B depicts the results from the same groups of animals reported in FIG. 7A using the Micro-CT imaging technique, which provides a high resolution analysis of the femoral shaft marrow cavity.

Row | Compound | bone formation in femur mid-shaft (calcein) ([1]; BMX + PTH for 21 days, day 21, FIG. 1A) | bone / fluorescent label remaining in ablated marrow cavity (calcein) ([1]; BMX + PTH for 84 days, day 84, FIG. 1A / 7A) | bone formation in femurs receiving a biocompatible matrix material (calcein) ([1]; BMX + biocompatible matrix + PTH 84 days versus buffer (PBS), FIG. 6A) | bone in femoral shaft marrow cavity (Micro-CT) ([2]; BMX + PTH 1-34 NH2 + biocompatible material versus biocompatible material alone, 84 days, FIG. 6B) | newly formed bone in the marrow cavity (Micro-CT) ([2]; BMX + PTH for 21 days, day 21, FIG. 1B) | bone in marrow cavity of femur mid-shaft/diaphysis (Micro-CT) ([2]; BMX + PTH for 84 days, day 84, FIG. 1B / 7B) | protection of bone formed in the marrow cavity (calcein fluorescent signal) [1] | protection of bone formed in the marrow cavity (Micro-CT) [2] | protection of bone formed in the marrow cavity (calcein fluorescent signal) ([1]; listed as Alendronate)
1 | PTH 1-34 NH2 | leads to additional bone formation | resorption of a substantial portion of the bone that was present at day 21; also recorded: contains a minimum amount of fluorescent label; also recorded: no longer contains fluorescent labels | markedly greater than for buffer (PBS) alone | better results than the use of biocompatible material alone | further augmented | no longer contains substantial amounts of bone; also recorded: no longer contains radio-dense bone |  |  | 
2 | calcitonin |  |  |  |  |  |  | protected; also recorded: protect the bone | protects the bone | 
3 | NCCCC(O)(P(=O)(O)O)P(=O)(O)O [alendronate] |  |  |  |  |  |  | protect the bone | to a greater extent | greater protective effect
